This is an account of results in ChEMBL document CHEMBL4421728, “Bach1 Inhibitors in Combination with Nrf2 Activators and Pharmaceutical Compositions Thereof” (2017).

SMILES strings stand for the structures.

Experiment [1] deals with T1, Transcription regulator protein BACH1 (Homo sapiens) (UniProt O14867).
T1 sequence (whole entry): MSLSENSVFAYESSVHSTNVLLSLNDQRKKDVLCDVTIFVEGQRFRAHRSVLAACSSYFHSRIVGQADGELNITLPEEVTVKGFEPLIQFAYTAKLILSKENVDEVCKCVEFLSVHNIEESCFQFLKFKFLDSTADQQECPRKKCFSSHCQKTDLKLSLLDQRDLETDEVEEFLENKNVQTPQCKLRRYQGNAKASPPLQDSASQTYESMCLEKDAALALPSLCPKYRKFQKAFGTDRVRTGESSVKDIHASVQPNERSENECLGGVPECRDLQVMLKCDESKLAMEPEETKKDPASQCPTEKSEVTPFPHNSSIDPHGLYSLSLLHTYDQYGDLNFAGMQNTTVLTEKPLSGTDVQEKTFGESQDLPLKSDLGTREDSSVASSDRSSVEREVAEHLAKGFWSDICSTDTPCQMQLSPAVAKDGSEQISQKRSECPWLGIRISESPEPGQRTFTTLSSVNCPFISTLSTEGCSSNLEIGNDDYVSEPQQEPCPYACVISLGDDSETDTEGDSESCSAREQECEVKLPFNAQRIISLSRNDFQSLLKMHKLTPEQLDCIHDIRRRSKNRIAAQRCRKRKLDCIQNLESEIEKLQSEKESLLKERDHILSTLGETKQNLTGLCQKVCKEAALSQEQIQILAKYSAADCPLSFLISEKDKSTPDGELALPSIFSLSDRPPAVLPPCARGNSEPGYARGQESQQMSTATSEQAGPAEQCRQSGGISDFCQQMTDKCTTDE
Nature of the experiment: Inhibition of Bach1 in normal human lung fibroblasts assessed as induction of HMOX protein expression at 1.25 uM incubated for 16 to 18 hrs in presence of 0.156 uM Nrf2 activator Bardoxolone methyl by immunostaining relative to control.

The target of experiment [2] is T1, Transcription regulator protein BACH1 (Homo sapiens). In words: Inhibition of Bach1 in normal human lung fibroblasts assessed as induction of HMOX protein expression at 0.019 uM incubated for 16 to 18 hrs in presence of 0.0048 uM Nrf2 activator Bardoxolone methyl by immunostaining relative to control.
Experiment [3] shares this target. In words: Inhibition of Bach1 in normal human lung fibroblasts assessed as induction of HMOX protein expression at 1.25 uM incubated for 16 to 18 hrs in presence of 0.039 uM Nrf2 activator Bardoxolone methyl by immunostaining relative to control.
Experiment [4] has the same target. In words: Inhibition of Bach1 in normal human lung fibroblasts assessed as induction of HMOX protein expression at 0.625 uM incubated for 16 to 18 hrs in presence of 0.039 uM Nrf2 activator Bardoxolone methyl by immunostaining relative to control.
The target is the same in experiment [5]. In words: Inhibition of Bach1 in normal human lung fibroblasts assessed as induction of HMOX protein expression at 0.625 uM incubated for 16 to 18 hrs by immunostaining relative to control.
The target is the same in experiment [6]. In words: Inhibition of Bach1 in normal human lung fibroblasts assessed as induction of HMOX protein expression at 0.039 uM incubated for 16 to 18 hrs in presence of 0.312 uM Nrf2 activator Bardoxolone methyl by immunostaining relative to control.
The target is the same in experiment [7]. Nature of the experiment: Inhibition of Bach1 in normal human lung fibroblasts assessed as induction of HMOX protein expression at 0.156 uM incubated for 16 to 18 hrs in presence of 0.0024 uM Nrf2 activator Bardoxolone methyl by immunostaining relative to control.
Experiment [8] shares this target. In words: Inhibition of Bach1 in normal human lung fibroblasts assessed as induction of HMOX protein expression at 0.312 uM incubated for 16 to 18 hrs by immunostaining relative to control.
Experiment [9] has the same target. In words: Inhibition of Bach1 in normal human lung fibroblasts assessed as induction of HMOX protein expression at 2.5 uM incubated for 16 to 18 hrs in presence of 0.0048 uM Nrf2 activator Bardoxolone methyl by immunostaining relative to control.
Experiment [10] has the same target. Nature of the experiment: Inhibition of Bach1 in normal human lung fibroblasts assessed as induction of HMOX protein expression at 0.078 uM incubated for 16 to 18 hrs in presence of 0.0024 uM Nrf2 activator Bardoxolone methyl by immunostaining relative to control.
Experiment [11] has the same target. Nature of the experiment: Inhibition of Bach1 in normal human lung fibroblasts assessed as induction of HMOX protein expression at 0.019 uM incubated for 16 to 18 hrs in presence of 0.078 uM Nrf2 activator Bardoxolone methyl by immunostaining relative to control.
Experiment [12] shares this target. In words: Inhibition of Bach1 in normal human lung fibroblasts assessed as induction of HMOX protein expression at 0.078 uM incubated for 16 to 18 hrs in presence of 0.312 uM Nrf2 activator Bardoxolone methyl by immunostaining relative to control.
Experiment [13] has the same target. In words: Inhibition of Bach1 in normal human lung fibroblasts assessed as induction of HMOX protein expression at 0.312 uM incubated for 16 to 18 hrs in presence of 0.078 uM Nrf2 activator Bardoxolone methyl by immunostaining relative to control.
Experiment [14] shares this target. Nature of the experiment: Inhibition of Bach1 in normal human lung fibroblasts assessed as induction of HMOX protein expression at 0.019 uM incubated for 16 to 18 hrs in presence of 0.312 uM Nrf2 activator Bardoxolone methyl by immunostaining relative to control.
The target is the same in experiment [15]. Nature of the experiment: Inhibition of Bach1 in normal human lung fibroblasts assessed as induction of HMOX protein expression at 0.312 uM incubated for 16 to 18 hrs in presence of 0.039 uM Nrf2 activator Bardoxolone methyl by immunostaining relative to control.
Experiment [16] shares this target. Nature of the experiment: Inhibition of Bach1 in normal human lung fibroblasts assessed as induction of HMOX protein expression at 0.156 uM incubated for 16 to 18 hrs in presence of 0.312 uM Nrf2 activator Bardoxolone methyl by immunostaining relative to control.
The target is the same in experiment [17]. In words: Inhibition of Bach1 in normal human lung fibroblasts assessed as induction of HMOX protein expression at 0.625 uM incubated for 16 to 18 hrs in presence of 0.0024 uM Nrf2 activator Bardoxolone methyl by immunostaining relative to control.
Experiment [18] has the same target. In words: Inhibition of Bach1 in normal human lung fibroblasts assessed as induction of HMOX protein expression at 0.078 uM incubated for 16 to 18 hrs in presence of 0.078 uM Nrf2 activator Bardoxolone methyl by immunostaining relative to control.
Experiment [19] shares this target. In words: Inhibition of Bach1 in normal human lung fibroblasts assessed as induction of HMOX protein expression at 0.625 uM incubated for 16 to 18 hrs in presence of 0.0048 uM Nrf2 activator Bardoxolone methyl by immunostaining relative to control.
The target is the same in experiment [20]. Nature of the experiment: Inhibition of Bach1 in normal human lung fibroblasts assessed as induction of HMOX protein expression at 0.039 uM incubated for 16 to 18 hrs in presence of 0.0097 uM Nrf2 activator Bardoxolone methyl by immunostaining relative to control.
Experiment [21] has the same target. In words: Inhibition of Bach1 in normal human lung fibroblasts assessed as induction of HMOX protein expression at 2.5 uM incubated for 16 to 18 hrs in presence of 0.078 uM Nrf2 activator Bardoxolone methyl by immunostaining relative to control.

For the compound `CNC(=O)c1ccc2c(c1)nc(Nc1nc3ccc(OC(F)(F)F)cc3s1)n2C`, the fold change (FC) in experiment [1] amounted to 16.6; in [2] it was 2.88; in experiment [3], 15.6; in experiment [4] it was 17.2; in [5], 15; in experiment [6], 17.4. For the same compound, the fold change (FC) was 7.32 in [7]; 9.82 in [8]; 19.5 in [9]; 4.25 in experiment [10]; 22.3 in experiment [11]; 15.3 in experiment [12]. The fold change (FC) is 21.1 in experiment [13]; 17.2 in [14]; 19.6 in experiment [15]; 16 in experiment [16]; 15.7 in experiment [17]; 19.5 in [18]. Moreover, the fold change (FC) in experiment [19] amounted to 17.1; in experiment [20], 5.31; in experiment [21], 14.3.
